“And” between values parts separate entries of the source, which are not always exact repeats. Equal entries are not always repeated.
Columns and labels:
[1] = molecular target: T1, GlcCer (glucosylceramide) synthase (Rattus norvegicus, UniProt Q9R0E0); assay: Enzyme activity in treated cerebral cortex culture: GlcCer synthase; assay type: cell-based; conditions: culture treated with 15 μM for 40 hours; read-out: Accelerating activity when enzyme activity of control is defined as 100%: GlcCer-synthase
T1 construct: primary culture of cerebral cortex tissue specimens of Wister albino rats; endogenous in cells; host or cells: primary culture of rat (Wistar) cerebral cortex, sonicated after 40 h with compound
T1 sequence (Q9R0E0 1-394): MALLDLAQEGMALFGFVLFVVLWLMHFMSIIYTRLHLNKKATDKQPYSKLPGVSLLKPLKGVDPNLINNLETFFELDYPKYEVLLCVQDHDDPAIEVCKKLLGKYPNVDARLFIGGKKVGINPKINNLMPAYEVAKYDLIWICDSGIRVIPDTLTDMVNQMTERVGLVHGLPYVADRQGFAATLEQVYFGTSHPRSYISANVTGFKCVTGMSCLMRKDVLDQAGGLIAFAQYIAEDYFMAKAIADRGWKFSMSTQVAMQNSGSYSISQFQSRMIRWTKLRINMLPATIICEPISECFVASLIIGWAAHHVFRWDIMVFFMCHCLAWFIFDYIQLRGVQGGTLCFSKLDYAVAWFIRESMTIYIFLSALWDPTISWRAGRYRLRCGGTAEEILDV
Procedure: (§1) After the mixture was cultured for 40 hours, the resulting culture was harvested and pulverized in a homogenized buffer (50 mM Hepes, 0.32M sucrose) by using a chip type sonicator to prepare an enzyme source.
After ^3 H-GlcCer which was a reaction product was extracted with t-butyl methyl ether, the extract was concentrated and evaporated to dryness, and its radioactivity was measured.

[2] = system: acyl-CoA: sphingosine N-acyltransferase; assay: Enzyme activity in treated cerebral cortex culture: acyl-CoA: sphingosine N-acyltransferase; assay type: cell-based, rat; set-up: key: *: No accelerating activity; conditions: culture treated with 15 μM for 40 hours
Procedure: as §1
0.25 mM sphingosine and 0.45 mM ^14 C palmitoyl CoA (8.3×10^5cpm) were reacted in the presence of ATP (adenosine 5'-triphosphate). After ceramide which was a reaction product was subjected to solvent extraction, the extract was concentrated and evaporated to dryness, and its radioactivity was counted.

[3] = system: primary cultured rat cerebral neurocytes (hippocampal neurons); assay: Neurite extension of primary cultured hippocampal neurocytes
Procedure: Hippocampi of rat brains at the 0th day after birth were extracted aseptically, subjected to enzyme treatment with papain in the same manner as in Example 1 and then washed with a DF medium. […] After culture for 24 hours, the neurocytes were fixed by paraformaldehyde, and a degree of neurite extension was recorded by microphotographs and then observed.

[4] = system: cerebral cortexes of rat fetuses (explants); assay: Explant culture of cerebral cortexes, neurocytes having neurites
From the text: The effect of neurite extension by administering the medicine after the culture was judged by measuring the number of neurocytes having neurites existing in the explants (the cultured tissues).

ICR mice = assay: General toxicity, continuous 10-day intraperitoneal administration; assay type: in vivo; conditions: 100 mg/kg/day intraperitoneally for 10 days
[5] = system: serine palmitoyltransferase; assay: Enzyme activity in treated cerebral cortex culture: serine palmitoyltransferase; assay type: cell-based, rat; conditions: culture treated with 15 μM for 40 hours
Procedure: as §1
1.5 mM palmitoyl CoA (coenzyme A) and 0.1 mM ^14 C serine (8.3×10^5 cpm) were reacted in the presence of 0.5 mM pyridoxalphosphoric acid. After 3-keto-sphingosine which was a reaction product was extracted, the extract was concentrated and evaporated to dryness, and its radioactivity was counted.

GD3 synthase = assay: Enzyme activity in treated cerebral cortex culture: GD3 synthase; assay type: cell-based, rat; conditions: culture treated with 15 μM for 40 hours; 2400 min, 15 µM
Procedure: as §1
GM3 as an acceptor substrate was reacted with 30 mM CMP-^14 C sialic acid (2.88×10^6 cpm) as a donor substrate. After the mixture containing a reaction product was developed by a reverse phase thin layer plate, a portion corresponding to the reaction product was scratched off, and its radioactivity was counted.

[6] = system: rat cerebral ischemia models; assay: Antidementia effect in rat cerebral ischemia models (Example 10); assay type: in vivo; conditions: 2×40 mg/kg/day intraperitoneally for 6 days from 24 hours after ischemia; retention trial 12 hours after final administration; 8 rats
Procedure: After 12 hours from the final administration, retention trial was carried out.

[7] = system: rat cerebral cortex neurocytes; assay: Synapse formation measured as frequency of intracellular Ca2+ fluctuation; assay type: cell-based
From the text: Further, as a method of measuring synapse formation relatively simply and easily, there has been developed a multipoint observation system of Ca^2+ in neurocytes using Fura-2, and it has been confirmed that the number of synapse formation is in direct proportion to frequency of intracellular Ca^2+ fluctuation in synchronization therewith (Br. J. Pharmacol., 89, 191-198, 1986; Neurosci. Lett., 78, 69-74, 1987). We investigated influences of L-threo-FDMP and D-threo-PDMP exerted on synapse formation between rat cerebral cortex neurocytes by using this method, and the results are shown below.

B16 melanoma cells = assay: Glycolipid biosynthesis (3H-galactose incorporation into GSL); assay type: cell-based; conditions: culture for 24 hours
Procedure: B16 melanoma cells derived from neuroectoderm were charged into a culture plate with 12 wells in an amount of 1×10^5 cells/well and cultured for 24 hours in a Dulbecco modified Eagle's medium containing 10% bovine fetal serum. […] After 24 hours, the medium was removed, the cells were washed with 1 ml of a phosphate buffer containing 0.1% EDTA, 1 ml of 0.25% trypsin was added, and the mixture was left to stand at 37° C. for 5 minutes. […] 4 ml of methanol and chloroform were added successively to the mass of the cells to extract all GSL, followed by evaporation to dryness. The residue was subjected to alkali hydrolysis with chloroform:methanol (1:1) containing 0.2N sodium hydroxide, neutralized with acetic acid and then evaporated to dryness. The product evaporated to dryness was dissolved in water and then desalted with a Sep-Pak C18 cartridge (Waters). The adsorbed GSL was dissolved out by 1 ml of methanol and 4 ml of chloroform:methanol (1:1) and then evaporated to dryness under a nitrogen stream. […] Thereafter, the positions of glucosylceramide, lactosylceramide and ganglioside GM3 were confirmed by iodine coloration, they were scratched off from TLC, respectively, and radioactivities thereof were measured by a liquid scintillation counter.

- enzyme activity relative to control at 15 µM [1]: 122%
Compound: CCCCCCCCCC(=O)N[C@@H](CN1CCOCC1)[C@@H](O)c1ccccc1 [L-threo-PDMP, 1-phenyl-2-decanoylamino-3-morpholino-1-propanol]
- Accelerating activity when enzyme activity of control is defined as 100%: Acyl-CoA: sphigosine N-acyltransferase [2]: *
- neurite extension (microphotographs) ([3]; 5 μM, 20 μM and 40 μM, culture for 24 hours, FIG. 2): significant neurite-extending action
- lengths of the neurites, statistical processing ([3]; 1 to 40 μM, FIG. 3): accelerates neurite extension with a significant different of P<0.005
- number of neurocytes having neurites in the explants versus group to which no medicine was administered ([4]; 10 μM, cultured for 2 days, medium containing no serum): about one and half times
- concentration range in which a pharmaceutical effect has been observed ([4]; culture of cerebral cortex pieces of rat fetuses): 5 to 20 µM
- decrease in weight / decrease in neutrophile, acidocyte due to suppression of bone marrow (ICR mice; in Myrj 52): neither decrease in weight nor decrease in neutrophile, acidocyte, etc. due to suppression of bone marrow was observed
- abnormality on observation for 3 months (ICR mice; observation for 3 months): no abnormality was observed
- Accelerating activity when enzyme activity of control is defined as 100%: Serine palmitoyltransferase [5]: 148.2%
- Accelerating activity when enzyme activity of control is defined as 100%: GD3 synthase (GD3 synthase): 300% and 302.5%
- rats recovered to a normal level [6]: 50%
- number of synapse formation (frequency of intracellular Ca2+ fluctuation) ([7]; FIG. 4): increase in the number of synapse formation depending on a dose
- concentration at which a pharmaceutical effect has been observed ([7]; culture for 8 hours, neurocytes of cerebral cortexes of rat fetuses): 40 µM
- concentration at which a pharmaceutical effect has been observed (B16 melanoma cells): 25 µM

From patent publication US5849326A, “Method for treating neuronal diseases via administration of 2-acylaminopropanol derivatives” (Seikagaku Corporation, priority 1993, dated 1998)
